# Laboratory results as given in ChEMBL document CHEMBL2311538, “Discovery of a class of novel tankyrase inhibitors that bind to both the nicotinamide pocket and the induced pocket” (J Med Chem, 2013).
# Experiments:
# [1] = biological target: T1, Poly [ADP-ribose] polymerase tankyrase-2 (Homo sapiens, UniProt Q9H2K2); experiment: Inhibition of N-terminal His6-tagged human TNKS2 (946 to 1162 amino acid residues) after 60 mins by autoparsylation assay
# T1 sequence (Q9H2K2 whole entry): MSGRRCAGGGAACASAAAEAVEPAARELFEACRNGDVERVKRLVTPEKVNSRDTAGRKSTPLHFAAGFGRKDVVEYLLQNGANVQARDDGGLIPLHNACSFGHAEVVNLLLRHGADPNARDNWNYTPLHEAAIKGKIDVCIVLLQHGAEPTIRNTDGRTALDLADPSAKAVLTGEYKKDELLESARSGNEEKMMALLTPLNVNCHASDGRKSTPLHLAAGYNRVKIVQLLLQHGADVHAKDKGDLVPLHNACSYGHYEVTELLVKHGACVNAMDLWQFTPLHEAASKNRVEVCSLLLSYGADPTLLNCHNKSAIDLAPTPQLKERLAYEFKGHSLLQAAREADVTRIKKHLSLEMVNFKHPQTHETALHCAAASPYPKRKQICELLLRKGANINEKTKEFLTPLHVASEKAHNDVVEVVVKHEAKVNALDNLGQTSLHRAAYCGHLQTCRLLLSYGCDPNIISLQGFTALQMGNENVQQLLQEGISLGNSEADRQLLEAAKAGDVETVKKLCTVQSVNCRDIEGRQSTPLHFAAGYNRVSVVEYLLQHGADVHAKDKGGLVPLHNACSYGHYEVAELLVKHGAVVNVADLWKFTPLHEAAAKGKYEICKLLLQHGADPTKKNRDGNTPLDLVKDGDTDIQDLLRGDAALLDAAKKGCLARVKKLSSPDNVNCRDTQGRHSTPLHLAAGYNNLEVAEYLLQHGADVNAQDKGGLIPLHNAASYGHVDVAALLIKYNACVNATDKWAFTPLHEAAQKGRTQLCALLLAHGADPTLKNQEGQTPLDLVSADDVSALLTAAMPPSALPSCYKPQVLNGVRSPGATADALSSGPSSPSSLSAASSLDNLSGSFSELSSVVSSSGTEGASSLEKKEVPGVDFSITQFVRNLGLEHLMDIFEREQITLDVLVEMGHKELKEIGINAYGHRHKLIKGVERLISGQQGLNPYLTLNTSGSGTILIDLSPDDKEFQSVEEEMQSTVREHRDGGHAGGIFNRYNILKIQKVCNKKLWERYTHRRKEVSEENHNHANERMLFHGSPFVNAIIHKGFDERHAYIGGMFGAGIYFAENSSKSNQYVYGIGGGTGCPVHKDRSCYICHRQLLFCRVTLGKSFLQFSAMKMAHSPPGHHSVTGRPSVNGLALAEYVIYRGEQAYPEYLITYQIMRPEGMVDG
# [2] = biological target: T2, Poly [ADP-ribose] polymerase tankyrase-1 (Homo sapiens, UniProt O95271)
# T2 sequence (O95271 whole entry): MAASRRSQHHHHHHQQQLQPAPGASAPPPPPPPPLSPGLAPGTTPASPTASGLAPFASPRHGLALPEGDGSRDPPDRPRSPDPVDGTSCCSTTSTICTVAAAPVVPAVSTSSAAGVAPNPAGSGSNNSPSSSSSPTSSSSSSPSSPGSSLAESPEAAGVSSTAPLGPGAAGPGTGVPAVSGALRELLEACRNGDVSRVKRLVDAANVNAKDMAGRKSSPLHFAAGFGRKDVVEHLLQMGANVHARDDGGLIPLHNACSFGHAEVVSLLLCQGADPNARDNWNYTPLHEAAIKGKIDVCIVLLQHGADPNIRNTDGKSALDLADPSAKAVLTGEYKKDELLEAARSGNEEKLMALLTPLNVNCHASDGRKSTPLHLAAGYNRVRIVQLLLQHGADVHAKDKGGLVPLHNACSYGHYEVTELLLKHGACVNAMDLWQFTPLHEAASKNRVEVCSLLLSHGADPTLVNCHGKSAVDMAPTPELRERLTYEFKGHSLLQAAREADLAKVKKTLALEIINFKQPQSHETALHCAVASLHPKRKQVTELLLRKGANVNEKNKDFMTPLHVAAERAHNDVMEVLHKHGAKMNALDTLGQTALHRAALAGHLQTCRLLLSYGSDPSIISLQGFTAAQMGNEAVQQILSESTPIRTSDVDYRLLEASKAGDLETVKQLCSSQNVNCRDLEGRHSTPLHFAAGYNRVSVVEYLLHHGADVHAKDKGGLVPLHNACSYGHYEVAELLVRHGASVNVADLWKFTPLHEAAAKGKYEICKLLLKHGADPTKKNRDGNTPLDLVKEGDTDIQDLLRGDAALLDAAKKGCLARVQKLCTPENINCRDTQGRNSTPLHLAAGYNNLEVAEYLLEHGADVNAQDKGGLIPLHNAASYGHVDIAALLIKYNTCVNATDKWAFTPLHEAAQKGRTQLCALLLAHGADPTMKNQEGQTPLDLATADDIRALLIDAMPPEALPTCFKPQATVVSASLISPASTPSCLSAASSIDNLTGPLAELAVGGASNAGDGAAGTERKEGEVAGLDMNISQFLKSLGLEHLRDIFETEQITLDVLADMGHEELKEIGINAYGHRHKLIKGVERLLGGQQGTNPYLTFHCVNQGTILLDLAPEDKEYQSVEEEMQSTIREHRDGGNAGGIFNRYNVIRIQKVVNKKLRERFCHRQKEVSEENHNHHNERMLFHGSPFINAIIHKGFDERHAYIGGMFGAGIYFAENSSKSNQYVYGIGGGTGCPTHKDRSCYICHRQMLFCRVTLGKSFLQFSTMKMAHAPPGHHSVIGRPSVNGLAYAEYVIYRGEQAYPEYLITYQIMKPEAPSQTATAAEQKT
# Tankyrase 1/2 = biological target: T3, Tankyrase 1/2 (Homo sapiens, UniProt Q9H2K2+O95271); conditions: hek293
# T3 sequence (Q9H2K2 whole entry): T1 sequence (Q9H2K2 whole entry)
# T3 sequence (O95271 whole entry): T2 sequence (O95271 whole entry)
# [3] = biological target: Poly [ADP-ribose] polymerase 2 (Homo sapiens, UniProt Q9UGN5); experiment: Inhibition of PARP2 (unknown origin)
# Chain of Poly [ADP-ribose] polymerase 2 (Q9UGN5 whole entry): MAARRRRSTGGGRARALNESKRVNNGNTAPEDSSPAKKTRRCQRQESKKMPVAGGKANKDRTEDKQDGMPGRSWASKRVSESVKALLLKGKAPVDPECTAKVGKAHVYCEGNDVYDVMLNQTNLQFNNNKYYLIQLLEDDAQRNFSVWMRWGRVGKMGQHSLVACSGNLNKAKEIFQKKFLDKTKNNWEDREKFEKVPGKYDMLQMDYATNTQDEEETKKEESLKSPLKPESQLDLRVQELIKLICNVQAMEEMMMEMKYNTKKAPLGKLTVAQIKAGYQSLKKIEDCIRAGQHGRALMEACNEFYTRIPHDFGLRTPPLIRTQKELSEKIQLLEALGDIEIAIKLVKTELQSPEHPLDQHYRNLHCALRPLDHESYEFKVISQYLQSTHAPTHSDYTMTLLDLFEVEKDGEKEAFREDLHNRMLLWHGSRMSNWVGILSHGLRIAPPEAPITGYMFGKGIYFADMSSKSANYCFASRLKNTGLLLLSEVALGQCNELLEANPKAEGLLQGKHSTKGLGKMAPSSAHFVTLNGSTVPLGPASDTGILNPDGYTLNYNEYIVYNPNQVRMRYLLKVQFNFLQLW
smiles,measurement,setting,value
Cc1ccnc2c(NC(=O)c3ccc(N4C(=O)[C@@H]5[C@H](C4=O)[C@@H]4C=C[C@H]5C4)cc3)cccc12,IC50,[1],36 nM
same,IC50,[2],192 nM
same,IC50,Tankyrase 1/2,163000 nM
COc1ccccc1NC(=O)c1ccc(NC(=O)CCc2nc3ccccc3c(=O)[nH]2)cc1,IC50,[3],931 nM
same,IC50,[2],8 nM
